The record followed here is patent US9000022B2 (Exelixis Patent Company LLC, priority 2005, dated 2015).

In the assay the test system is LXRα and/or LXRβ. As to the kind of experiment: Co-transfection assay (LXRE luciferase reporter, CV-1 cells). The assay is classed as cell-based, human. As to conditions: tested as described in Example 33; IC50 or EC50 for LXRα and/or LXRβ, isoform not specified; read-out: activity (IC50 or EC50 for LXR). A digest of the protocol:
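CV-1 cells transiently co-transfected with full-length human LXRα or LXRβ plus RXRα, an LXRE×1-Tk-luciferase reporter and a β-galactosidase control. Compounds incubated 20 h at 37 °C (≤1% DMSO; screen at 10 μM final); luciferase read after lysis. EC50/IC50 from 8-point half-log curves (4 wells per point, ≥3 experiments); efficacy relative to a reference agonist high control and DMSO.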
For orientation: In a reporter assay the amount or activity of a reporter protein is the signal.

SMILES strings stand for the structures. Some results are limits rather than exact numbers.

On to `CCS(=O)(=O)c1cccc(-c2ccc(-n3cc(C(C)(C)O)nc3C(C)(C)c3cccc(Cl)c3Cl)c(Cl)c2)c1` [Example 452, 2-(1-(3-chloro-3′-(ethyl-sulfonyl)biphenyl-4-yl)-2-(2-(2,3-dichlorophenyl)propan-2-yl)-1H-imidazol-4-yl)propan-2-ol], for which the IC50 or EC50 (potency, activation or inhibition) was below 1 µM. The figure for `CC(C)(O)c1cn(-c2ccc(-c3ccc(C(N)=O)c(S(C)(=O)=O)c3)cc2Cl)c(-c2c(F)cccc2Cl)n1` [Example 453] is 1 to 10 µM; for `COc1ccc(-c2ccc(-n3cc(C(C)(C)O)nc3-c3c(F)cccc3Cl)c(Cl)c2)cc1S(C)(=O)=O` [Example 454, 2-(1-(3-chloro-4′-methoxy-3′-(methylsulfonyl)biphenyl-4-yl)-2-(2-chloro-6-fluorophenyl)-1H-imidazol-4-yl)propan-2-ol] it is 1 to 10 µM. With `COc1ccc(-c2ccc(-n3cc(C(C)(C)O)nc3-c3cccc(Cl)c3Cl)cc2)cc1S(C)(=O)=O` [Example 455, 2-(2-(2,3-dichlorophenyl)-1-(4′-methoxy-3′-(methylsulfonyl)biphenyl-4-yl)-1H-imidazol-4-yl)propan-2-ol] the figure was below 1 µM; with `COc1ccc(-c2ccc(-n3cc(C(C)(C)O)nc3Cc3cccc(Cl)c3Cl)c(C)c2)cc1S(C)(=O)=O` [Example 456, 2-(2-(2,3-dichlorobenzyl)-1-(4′-methoxy-3-methyl-3′-(methyl-sulfonyl)biphenyl-4-yl)-1H-imidazol-4-yl)propan-2-ol], below 1 µM. With `COc1ccc(-c2ccc(-n3cc(C(C)(C)O)nc3Cc3cccc(Cl)c3Cl)c(Cl)c2)cc1S(C)(=O)=O` [Example 457, 2-(1-(3-chloro-4′-methoxy-3′-(methyl-sulfonyl)biphenyl-4-yl)-2-(2,3-dichlorobenzyl)-1H-imidazol-4-yl)propan-2-ol] the figure was below 1 µM. As for `CC(C)(O)c1cn(-c2ccc(-c3cccc(S(C)(=O)=O)c3)cc2)c(-c2c(Cl)cccc2-c2cccc(S(C)(=O)=O)c2)n1` [Example 458, 2-(2-(3-chloro-3′-(methyl-sulfonyl)biphenyl-2-yl)-1-(3′-(methylsulfonyl)biphenyl-4-yl)-1H-imidazol-4-yl)propan-2-ol], the IC50 or EC50 (potency, activation or inhibition) is 1 to 10 µM. The figure for `CS(=O)(=O)c1cccc(-c2ccc(-n3cc(C(=O)NCC(F)(F)F)nc3-c3c(Cl)cccc3Cl)c(Cl)c2)c1` [Example 459, 1-(3-chloro-3′-(methyl-sulfonyl)biphenyl-4-yl)-2-(2,6-dichlorophenyl)-N-(2,2,2-trifluoro-ethyl)-1H-imidazole-4-carboxamide] is below 1 µM. The figure for `CS(=O)(=O)c1cccc(-c2ccc(-n3cc(C(=O)NCCF)nc3-c3c(Cl)cccc3Cl)c(Cl)c2)c1` [Example 460, 1-(3-chloro-3′-(methyl-sulfonyl)biphenyl-4-yl)-2-(2,6-dichlorophenyl)-N-(2-fluoroethyl)-1H-imidazole-4-carboxamide] is below 1 µM; for `CS(=O)(=O)c1cccc(-c2ccc(-n3cc(C(=O)NCC(=O)O)nc3-c3c(Cl)cccc3Cl)c(Cl)c2)c1` [Example 461, 2-(1-(3-chloro-3′-(methyl-sulfonyl)biphenyl-4-yl)-2-(2,6-dichlorophenyl)-1H-imidazole-4-carboxamido)acetic acid] it is above 10 µM. The figure for `CCS(=O)(=O)c1cccc(-c2ccc(-n3cc(C(=O)NCC(F)(F)F)nc3-c3c(Cl)cccc3Cl)c(Cl)c2)c1` [Example 462, 1-(3-chloro-3′-(ethylsulfonyl)biphenyl-4-yl)-2-(2,6-dichlorophenyl)-N-(2,2,2-trifluoroethyl)-1H-imidazole-4-carboxamide] is below 1 µM; for `CC(C)(CO)NC(=O)c1cn(-c2ccc(-c3cccc(S(C)(=O)=O)c3)cc2Cl)c(-c2c(Cl)cccc2Cl)n1` [Example 463, 1-(3-chloro-3′-(methylsulfonyl)biphenyl-4-yl)-2-(2,6-dichlorophenyl)-N-(1-hydroxy-2-methylpropan-2-yl)-1H-imidazole-4-carboxamide] it is below 1 µM; for `CCS(=O)(=O)c1cccc(-c2ccc(-n3cc(C(=O)NC(C)(C)CO)nc3-c3c(Cl)cccc3Cl)c(Cl)c2)c1` [Example 464, 1-(3-chloro-3′-(ethylsulfonyl)biphenyl-4-yl)-2-(2,6-dichlorophenyl)-N-(1-hydroxy-2-methylpropan-2-yl)-1H-imidazole-4-carboxamide] it is below 1 µM. As to `CC(C)(C)NC(=O)c1cn(-c2ccc(-c3cccc(S(C)(=O)=O)c3)cc2Cl)c(-c2c(Cl)cccc2Cl)n1` [Example 465, N-tert-butyl-1-(3-chloro-3′-(methylsulfonyl)biphenyl-4-yl)-2-(2,6-dichlorophenyl)-1H-imidazole-4-carboxamide], the IC50 or EC50 (potency, activation or inhibition) is below 1 µM. With `Cc1cc(-c2ccc(C(=O)O)cc2Cl)ccc1-n1cc(C(C)(C)O)nc1-c1c(Cl)cccc1Cl` [Example 466, 2-chloro-4′-(2-(2,6-dichlorophenyl)-4-(2-hydroxypropan-2-yl)-1H-imidazol-1-yl)-3′-methylbiphenyl-4-carboxylic acid] the figure was above 10 µM; with `CC(C)(O)c1cn(-c2ccc(-c3cc(S(C)(=O)=O)ccc3Cl)cc2Cl)c(-c2c(Cl)cccc2Cl)n1` [Example 467, 2-(1-(2′,3-dichloro-5′-(methyl-sulfonyl)biphenyl-4-yl)-2-(2,6-dichlorophenyl)-1H-imidazol-4-yl)propan-2-ol], below 1 µM. The figure for `Cc1cc(-c2cc(S(C)(=O)=O)ccc2Cl)ccc1-n1cc(C(C)(C)O)nc1Cc1cccc(Cl)c1Cl` [Example 468, 2-(1-(2′-chloro-3-methyl-5′-(methylsulfonyl)biphenyl-4-yl)-2-(2,3-dichlorobenzyl)-1H-imidazol-4-yl)propan-2-ol] is below 1 µM.

In the case of `CC(C)(O)c1cn(-c2ccc(-c3ccc4c(c3)S(=O)(=O)CC4O)cc2Cl)c(-c2c(F)cccc2Cl)n1` (centres unmarked) [Example 469, 6-{3-chloro-4-[2-(2-chloro-6-fluorophenyl)-4-(1-hydroxy-1-methylethyl)-1H-imidazol-1-yl]phenyl}-2,3-dihydro-1-benzo-thiophene-3-ol 1,1-dioxide], the IC50 or EC50 (potency, activation or inhibition) lay within 1 to 10 µM. With `CS(=O)(=O)c1cccc(-c2ccc(-n3cc(C(=O)NCCO)nc3-c3c(Cl)cccc3Cl)c(Cl)c2)c1` [Example 470, 1-(3-chloro-3′-(methylsulfonyl)biphenyl-4-yl)-2-(2,6-dichlorophenyl)-N-(2-hydroxyethyl)-1H-imidazole-4-carboxamide] the figure was below 1 µM. The figure for `CCS(=O)(=O)c1cccc(-c2ccc(-n3cc(C(=O)NCCO)nc3-c3c(Cl)cccc3Cl)c(Cl)c2)c1` [Example 471, 1-(3-chloro-3′-(ethylsulfonyl)biphenyl-4-yl)-2-(2,6-dichlorophenyl)-N-(2-hydroxyethyl)-1H-imidazole-4-carboxamide] is below 1 µM.
